For this assay, the target named is rhSYK (Homo sapiens (Human), UniProt P43405). The conditions noted are these: read-out: rhSYK activity.
For the molecule `O=[N+]([O-])c1cc(Nc2nccc(C(F)(F)F)n2)cc(-c2cnc(C3(O)CCC3)s2)c1` [Example 18, 1-[5-(3-nitro-5-{[4-(trifluoromethyl)pyrimidin-2-yl]amino}phenyl)-1,3-thiazol-2-yl]cyclobutanol], the IC50 was in the range of 100 to 1000 nM.

Turning to `Cc1cc(Nc2nccc(C(F)(F)F)n2)cc(-c2cnc(C3(O)COC3)s2)c1` [Example 4B-12], the IC50 is under 100 nM.

In the case of `Cc1cc(Nc2nccc(C(F)(F)F)n2)cc(-c2cnc(C3(O)C[C@H]4CC(=O)C[C@H]4C3)s2)c1` (stereo partly drawn) [Example 4B-20], the IC50 was under 100 nM.

As to `Cc1cc(Nc2nccc(C(F)(F)F)n2)cc(-c2cnc(C3(O)CC4(O)CCC3(C)CC4)s2)c1` (stereo not drawn) [Example 4B-41], the IC50 is under 100 nM.

Turning to `Cc1cc(Nc2nccc(C)n2)cc(-c2cnc(C3(O)CCC(CN)CC3)s2)c1` (stereo not drawn) [Example 4C-3], the IC50 is under 100 nM.

In the case of `CC(O)(CO)c1ncc(-c2cccc(Nc3nccc(C(F)(F)F)n3)c2)s1` (stereo not drawn) [Ex 5-1], the IC50 is under 100 nM.

On to `Cc1cc(Nc2nccc(C(F)(F)F)n2)cc(-c2cnc(C3(NC(N)=O)CCC3)s2)c1` [Example 64, 1-{1-[5-(3-methyl-5-{[4-(trifluoromethyl)pyrimidin-2-yl]amino}phenyl)-1,3-thiazol-2-yl]cyclobutyl}urea], for which the IC50 is under 100 nM.

`CC(=O)Nc1cc(Nc2nccc(C(F)(F)F)n2)cc(-c2cnc(C(C)(C)S(N)(=O)=O)s2)c1` [Example 72, N-(3-[2-(2-sulfamoylpropan-2-yl)-1,3-thiazol-5-yl]-5-{[4-(trifluoromethyl)pyrimidin-2-yl]amino}phenyl)acetamide]: the IC50 is under 100 nM.

As for `Cc1cc(Nc2nccc(C(F)(F)F)n2)cc(-c2cncs2)c1` [Intermediate 4, N-[3-methyl-5-(1,3-thiazol-5-yl)phenyl]-4-(trifluoromethyl)pyrimidin-2-amine], the IC50 was under 100 nM.

`COc1ccnc(Nc2cc(C)cc(-c3cnc(C4(Cl)CCN(S(N)(=O)=O)CC4)s3)c2)n1` [54(2), 4-Chloro-4-(5-{3-[(4-methoxypyrimidin-2-yl)amino]-5-methylphenyl}-1,3-thiazol-2-yl)-piperidine-1-sulfonamide]: the IC50 was under 100 nM.

Regarding `Cc1cc(Nc2nccc(C(F)(F)F)n2)cc(-c2cnc(C3(O)CCNC(=O)CC3)s2)c1` (stereo not drawn) [Example 10, 5-Hydroxy-5-[5-(3-methyl-5-{[4-(trifluoromethyl)pyrimidin-2-yl]amino}phenyl)-1,3-thiazol-2-yl]azepan-2-one], the IC50 was under 100 nM.

As for `Cc1cc(Nc2nccc(C(F)(F)F)n2)cc(-c2cnc(C3(O)CCCC(O)C3(C)C)s2)c1` (stereo not drawn) [Example 8B-3], the IC50 was under 100 nM.

Take `Cc1cc(Nc2ncc(Cl)cn2)cc(-c2cnc(C(O)(CO)CO)s2)c1` [Ex 5-20]: the IC50 was in the range of 100 to 1000 nM.

As to `CC(O)(CO)c1ncc(-c2cccc(Nc3nccc(C(F)(F)F)n3)c2)s1` (single isomer, unassigned) [Ex 5-3], the IC50 is under 100 nM.

Turning to `Cc1cc(Nc2nccc(C(F)(F)F)n2)cc(-c2cnc(C3CCC(=O)O3)s2)c1` (stereo not drawn) [Example 4B-60], the IC50 is under 100 nM.

Take `OC1(c2ncc(-c3cccc(Nc4nccc(C(F)(F)F)n4)c3)s2)CCCCCC1` [Example 4C-1]: the IC50 was under 100 nM.

On to `O=C1C[C@@H]2C[C@@](O)(c3ncc(-c4cccc(Nc5nccc(C(F)(F)F)n5)c4)s3)C[C@@H]2C1` [Example 4B-7], for which the IC50 was 100 to 1000 nM.

Consider `COc1nc(Nc2cc(C)cc(-c3cnc(C(C)(O)CO)s3)c2)ncc1Cl` (stereo not drawn) [Ex 5-19], for which the IC50 is under 100 nM.

For `Cc1cc(Nc2nccc(C(F)(F)F)n2)cc(-c2cnc(C(C)(C)O)s2)c1` [Example 4, 2-[5-(3-methyl-5-{[4-(trifluoromethyl)pyrimidin-2-yl]amino}phenyl)-1,3-thiazol-2-yl]propan-2-ol], the IC50 is under 100 nM.

For `Cc1cc(Nc2nccc(C(=O)N3CCNCC3)n2)cc(-c2cnc(C(C)(O)C(F)(F)F)s2)c1` (stereo not drawn) [Example 69, [2-({3-methyl-5-[2-(1,1,1-trifluoro-2-hydroxypropan-2-yl)-1,3-thiazol-5-yl]phenyl}amino)-pyrimidin-4-yl](piperazin-1-yl)methanone], the IC50 was under 100 nM.

For `Cc1cc(Nc2nccc(C(F)(F)F)n2)cc(-c2cnc(C3(O)COC(C)(C)OC3)s2)c1` [Example 4B-14], the IC50 was under 100 nM.

Consider `Cc1cc(Nc2ncc(F)c(C3CC3)n2)cc(-c2cnc(C(O)(CO)C(F)(F)F)s2)c1` (stereo not drawn) [Example 58, 2-(5-{3-[(4-cyclopropyl-5-fluoropyrimidin-2-yl)amino]-5-methylphenyl}-1,3-thiazol-2-yl)-3,3,3-trifluoropropane-1,2-diol], for which the IC50 is under 100 nM.

On to `Cc1cc(Nc2ncc(F)c(C)n2)cc(-c2cncs2)c1` [Intermediate 49, 5-Fluoro-4-methyl-N-[3-methyl-5-(1,3-thiazol-5-yl)phenyl]pyrimidin-2-amine], for which the IC50 is under 100 nM.

As for `CC(O)(CO)c1ncc(-c2cccc(Nc3nccc(C(F)(F)F)n3)c2)s1` (single isomer, unassigned) [Ex 5-2], the IC50 was under 100 nM.

For the molecule `CC(O)(CO)c1ncc(-c2cc(F)cc(Nc3ncc(F)c(C4CC4)n3)c2)s1` (stereo not drawn) [Example 57, 2-(5-{3-[(4-cyclopropyl-5-fluoropyrimidin-2-yl)amino]-5-fluorophenyl}-1,3-thiazol-2-yl)propane-1,2-diol], the IC50 was under 100 nM.

Take `Cc1cc(Nc2nccc(C(F)(F)F)n2)cc(-c2cnc(C3=CC(=O)NCCC3)s2)c1` [Example 10B-2]: the IC50 was under 100 nM.

With `Cc1cc(Nc2nccc(C(F)(F)F)n2)cc(-c2cnc(C3(O)CN(C(C)(C)C(=O)OC(C)(C)C(=O)O)C3)s2)c1` [Example 53(2), 2-[(2-{3-Hydroxy-3-[5-(3-methyl-5-{[4-(trifluoromethyl)pyrimidin-2-yl]amino}phenyl)-1,3-thiazol-2-yl]azetidin-1-yl}-2-methylpropanoyl)oxy]-2-methylpropanoic acid], the IC50 is under 100 nM.

Consider `CSc1ccc(C(C)(O)c2ncc(-c3cc(C)cc(Nc4nccc(C(F)(F)F)n4)c3)s2)cc1` (stereo not drawn) [Example 4A-57, 1-[4-(methylsulfanyl)phenyl]-1-[5-(3-methyl-5-{[4-(trifluoromethyl)pyrimidin-2-yl]amino}phenyl)-1,3-thiazol-2-yl]ethanol], for which the IC50 is 100 to 1000 nM.

As for `Cc1cc(Nc2nccc(C(F)(F)F)n2)cc(-c2cnc(C3(O)CCC(CCN)CC3)s2)c1` (stereo not drawn) [Example 4C-5], the IC50 was under 100 nM.

As to `Cc1cc(Nc2nccc(C(F)(F)F)n2)cc(-c2cnc(C(C)(O)C(C)(C)O)s2)c1` (stereo not drawn) [Ex 5-4], the IC50 is under 100 nM.

`OC(c1ncc(-c2cc(Nc3nccc(C(F)(F)F)n3)cc(N3CCOCC3)c2)s1)(C1CC1)C1CC1` [Example 24, dicyclopropyl{5-[3-(morpholin-4-yl)-5-{[4-(trifluoromethyl)pyrimidin-2-yl]amino}phenyl]-1,3-thiazol-2-yl}methanol]: the IC50 was under 100 nM.

On to `Cc1cc(Nc2nccc(C(F)(F)F)n2)cc(-c2cnc(C(O)C(F)(F)F)s2)c1` (stereo not drawn) [Example 6, 2,2,2-trifluoro-1-[5-(3-methyl-5-{[4-(trifluoromethyl)pyrimidin-2-yl]amino}phenyl)-1,3-thiazol-2-yl]ethanol], for which the IC50 was under 100 nM.

For `Cc1cc(Nc2nccc(C(=O)O)n2)cc(-c2cnc(C(C)(O)C(F)(F)F)s2)c1` (stereo not drawn) [Example 68, 2-({3-methyl-5-[2-(1,1,1-trifluoro-2-hydroxypropan-2-yl)-1,3-thiazol-5-yl]phenyl}amino)-pyrimidine-4-carboxylic acid], the IC50 is 1000 to 10000 nM.

`Cc1cc(Nc2nccc(C(F)(F)F)n2)cc(-c2cnc(C3(O)CCN(S(=O)(=O)c4ccccc4)CC3)s2)c1` [Example 50, 4-[5-(3-methyl-5-{[4-(trifluoromethyl)pyrimidin-2-yl]amino}phenyl)-1,3-thiazol-2-yl]-1-(phenylsulfonyl)piperidin-4-ol]: the IC50 fell in the range of 100 to 1000 nM.

As to `CCOC(=O)C1CCC(O)(c2ncc(-c3cc(C)cc(N(C(=O)OC(C)(C)C)c4nccc(C(F)(F)F)n4)c3)s2)CC1` (stereo not drawn) [Intermediate 119, Ethyl 4-[5-(3-{(tert-butoxycarbonyl)[4-(trifluoromethyl)pyrimidin-2-yl]amino}-5-methylphenyl)-1,3-thiazol-2-yl]-4-hydroxycyclohexanecarboxylate], the IC50 lay in the range of 1000 to 10000 nM.

For the molecule `FC(F)(F)c1cc(Br)cc(Nc2nccc(C(F)(F)F)n2)c1` [N-[3-bromo-5-(trifluoromethyl)phenyl]-4-(trifluoromethyl)pyrimidin-2-amine], the IC50 fell in the range of 1000 to 10000 nM.

Take `OC1(c2ncc(-c3cccc(Nc4nccc(C(F)(F)F)n4)c3)s2)CCN(C2CC2)CC1` [4D-3]: the IC50 was under 100 nM.

On to `CCOC(=O)C1CCC(O)(c2ncc(-c3cc(C)cc(Nc4nccc(C)n4)c3)s2)CC1c1ccccc1C` (stereo not drawn) [Example 4C-27], for which the IC50 lay in the range of 100 to 1000 nM.

Consider `Cc1cc(Nc2ncc(F)cn2)cc(-c2cncs2)c1` [Intermediate 50, 5-Fluoro-N-[3-methyl-5-(1,3-thiazol-5-yl)phenyl]pyrimidin-2-amine], for which the IC50 was in the range of 100 to 1000 nM.

With `CC1(C)C(O)C(C)(C)C1(O)c1ncc(-c2cccc(Nc3nccc(C(F)(F)F)n3)c2)s1` (stereo not drawn) [Example 6-10], the IC50 lay within 100 to 1000 nM.

For `CCOC(=O)C1CC=C(c2ncc(-c3cc(C)cc(Nc4nccc(C(F)(F)F)n4)c3)s2)CC1` (stereo not drawn) [Example 34, ethyl 4-[5-(3-methyl-5-{[4-(trifluoromethyl)pyrimidin-2-yl]amino}phenyl)-1,3-thiazol-2-yl]cyclohex-3-ene-1-carboxylate], the IC50 lay in the range of 100 to 1000 nM.

As to `CC(C)(O)c1ncc(-c2cc(Nc3nccc(C(F)(F)F)n3)cc(C3CC3)c2)s1` [Example 31, 2-[5-(3-cyclopropyl-5-{[4-(trifluoromethyl)pyrimidin-2-yl]amino}phenyl)-1,3-thiazol-2-yl]propan-2-ol], the IC50 is under 100 nM.

With `OC(c1ncc(-c2cccc(Nc3nccc(C(F)(F)F)n3)c2)s1)C1CC1` (stereo not drawn) [Example 4A-5, cyclopropyl[5-(3-{[4-(trifluoromethyl)pyrimidin-2-yl]amino}phenyl)-1,3-thiazol-2-yl]methanol], the IC50 is under 100 nM.

For `Cc1cc(Nc2ncc(Cl)c(C)n2)cc(-c2cnc(C(C)(O)CO)s2)c1` (stereo not drawn) [Ex 5-14], the IC50 is under 100 nM.

For `COC(=O)C1CC(O)(c2ncc(-c3cc(C)cc(Nc4nccc(C(F)(F)F)n4)c3)s2)CCN1C(=O)OC(C)(C)C` (stereo not drawn) [4D-14], the IC50 was 100 to 1000 nM.

The record behind these values is patent US8759366B2, “Aminopyrimidines as SYK inhibitors” (Merck Sharp & Dohme Corp., priority 2009, dated 2014).
